Assay results taken from patent US6787564B2, “Optically active clausenamides, process of the preparation thereof, pharmaceutical composition containing the same and their medical use” (Institute of Materia Medica, Chinese Academy of Medical …, priority 2002, dated 2004).

Assays:
[1] = test system: Human embryonic neural stem cells; assay: colony-form frequency in human embryonic neural stem cells; format: cell-based; conditions: 1 μM; for Colonies, 6 weeks / Colonies, 4 weeks / Colonies, 3 weeks: N 4; for Colonies, 6 weeks: Control(DMSO) 22.25 ± 4.86; for Colonies, 4 weeks: Control(DMSO) 30.33 ± 4.99; for Colonies, 3 weeks: Mean ± SD, Control(DMSO) 43.00 ± 4.97
Experimental: Human embryonic brain neural stem cells(NSC) were dissociated enzymatically with 0.05% trypsin-0.53 mM EDTA and cultured in the DMEM/F12 medium with N2 supplement (GIBCO), fibroblast growth factor-2 (20 ng/ml), epidermal growth factor (20 ng/ml) at 37° C. The media were changed once every week. The single cell suspension from neurosphere cells of NSC was dissociated by 0.1% trypsin. 2×10^4 cells were seeded in a well of a 96-well plate. After 24 hours, the dose at 1 μM of tested chemical was added in a well. 6 chemicals, (−)neoclausenamide(−), (+)neoclausenamide(+), (−)epineoclausenamide(−), (+)epineoclausenamide(+), (−)cisneoclausenamide(−) and (+)cisneoclausenamide(+), were detected. 4 wells were used each group. The media with tested chemical were changed once every week. The colonies of NSC were formed and counted under a microscopy at 3 weeks, 4 weeks and 6 weeks.

[2] = test system: dentate gyrus of hippocampus; assay: induction of LTP in hippocampal of rat (population spike amplitude); format: in vivo, SD rats; conditions: I.C.V.; means ± SD
Source text: Adult male SD rats were anesthetized to maintain a surgical level. A stainless steel cannula-recording electrode was placed in DG (dentate gyrus) of hippocampus using a stereotaxic instrument. The combination of cannula-recording electrode was constructed by insulating the outside of the cannula, except at the tip and top. In the top noninsulated area, a stainless steel wire was wrapped around the cannula and connected to the amplifier via an amphenol connector. The four pairs optically active clausenamides shown in table 9 was delivered by I.C.V. Responses were evoked via direct stimulation of the performant path (PP) using a stainless steel bipolar stimulating electrode. Constant current stimulation provided by a stimulator was delivered to the stimulating electrode through a Stimulus Isolation Unit.
The stimulating electrode was adjusted until a characteristic EPSP was observed under constant current. The evoked responses were amplified on a series alternating current preamplifier, using a microcomputer, and then stored for off-line analysis using DataWave software. The current intensity that elicited a 50% maximal response in each animal was determined and used for all subsequent stimulation. To measure treatment effects, responses were evoked once every 30 sec throughout the entire experiment, and population spike amplitude(PSA) were calculated.

[3] = test system: animals with anisodine-induced memory impairment; assay: step-through test, memory impairment induced by anisodine; format: in vivo
Source text: (§1) This invention used one trial avoidance task—step-down and step-through tests and water maze to compare the improving memorial effects of (±), (−) clausenamide. The drugs were given orally once to animals before experiment in step-down and step-through tests. The water maze test lasted for 5 days in succession. The results were expressed as latency and errors number.

[4] = test system: animals with anisodine-induced memory impairment; assay: memory impairment induced by anisodine in water maze test; format: in vivo
Source text: as §1

A β 25-35 treated rats = assay: Morris water maze, A β 25-35 induced impairment of memory; format: in vivo; conditions: A β 25-35 alone
Source text: Pathological features of Alzheimer's disease (AD) include extensive neuronal loss and the presence of numerous neurofibrillary tangles and senile plaques in the brain. The senile plaques contain amyloid fibrils derived from a 39-43 amino acids peptide referred to as β-amyloid or A β which can produce neurotoxicity. A β 25-35 poccesses the similar neurotoxicity and ability of self-aggregation as A β 1-42. Administrated aggregated A β 25-35 into rat's lateral cerebral ventricle induced memory impairment in Morris water maze.
With increasing of training days, the initial heading angle became small. On the 3th day, the initial heading angle of A β group was larger than control. […] (see Tab.3)
There are four strategies for finding platform in Morris water maze: random, circle, taxis and line. In the beginning of training the search strategies for finding target is mainly circle and random, with the increasing of training, the percentage of the two strategies declined gradually, Beginning from the 3th day, declining speed in control and (−) clausenamide group was faster than A β,(+) clausenamide and piracetam groups.

[5] = test system: β-AP (25-35)-treated rats; assay: one trial passive avoidance of β-AP (25-35)-treated rats; format: in vivo; conditions: β-AP-treated + vehicle, n = 8, MEAN ± S.E.M.
[6] = test system: dentate gyrus granule cells; assay: basal synaptic transmission / LTP in dentate gyrus of hippocampus in anesthetized rats (population spike amplitude); format: in vivo; conditions: for decrease of PS amplitude compared with that of (−) clausenamide: 60 min
Source text: Drugs or vehicle injection were delivered via cannula in the lateral cerebral ventricle at final concentration of 2×10^−6 mol/L. The population spike (PS) amplitude was employed as an indication of the level of excitation of the granular cell population in the dentate gyrus. To obtain this measurement, an evoked response was generated in the dentate gyrus granule cell layer by stimulating the pp at low freguency (0.033 Hz) with. single square wave pulses of 0.15 ms duration The LTP formation must accord the following creteria: The PS amplitude increased is over 30% and this high PS amplitude can persist for 40 min.

animals = assay: memory in water maze test; format: in vivo
Source text: as §1

[7] = anisodine + drug 10 mg/kg (Tab 7)
[8] = anisodine + drug 50 mg/kg (Tab 7)

Compound | frequency of colonies of NSC vs control group at 6 weeks (in words) [1] | Colonies, 6 weeks [1] | Colonies, 4 weeks [1] | Colonies, 3 weeks [1] | PSA (%), 15 min [2] | PSA (%), 30 min [2] | PSA (%), 60 min [2] | also measured
CN1C(=O)[C@@H](O)[C@@H]([C@H](O)c2ccccc2)[C@H]1c1ccccc1 [(−)epineoclausenamide, 3S4R5S6S(−)epineoclausenamide] | significantly difference | 32.50 ± 7.05 | 36.75 ± 7.59 | 58.00 ± 13.02 | – | – | – | –
CN1C(=O)[C@@H](O)[C@@H]([C@@H](O)c2ccccc2)[C@@H]1c1ccccc1 [(−)epiclausenamide, 3S4R5R6R (−)epiclausenamide] | – | – | – | – | 97.8 ± 21.7% | 91.2 ± 22.5% | 117.3 ± 22.5% | –
CN1C(=O)[C@@H](O)[C@H]([C@H](O)c2ccccc2)[C@@H]1c1ccccc1 [(−)cisneoclausenamide, 3S4S5R6S (−)cisneoclausenamide] | significantly difference | 33.50 ± 4.20 | 35.25 ± 7.46 | 49.50 ± 5.43 | 94.1 ± 6.7% | 98.2 ± 6.6% | 94.9% | –
CN1C(=O)[C@H](O)[C@H]([C@H](O)c2ccccc2)[C@H]1c1ccccc1 [(+)epiclausenamide, 3R4S5S6S (+)epiclausenamide] | – | – | – | – | 136.0 ± 22.8% | 147.5 ± 15.0% | 207.8 ± 12.8% | –
CN1[C@@H]2CC(OC(=O)[C@@](O)(CO)c3ccccc3)C[C@H]1[C@@H]1O[C@@H]12 (stereo partly drawn) [Anisodine, reference compound] | – | – | – | – | – | – | – | Error number ([3]; anisodine 10 mg/kg alone, 0.9% Nacl 2.0 ± 3.8 (Tab 7)): 14.1 ± 8.9; Latencies ([3]; anisodine 10 mg/kg alone, 0.9% Nacl 152.1 ± 64.2, N = 10 (Tab 7)): 35.8 ± 76.4 s; Errors number ([4]; anisodine group alone, 10 animals): 15.9 ± 11.3
CN1C(=O)[C@@H](O)[C@H]([C@@H](O)c2ccccc2)[C@H]1c1ccccc1 [(+)cisclausenamide, 3S4S5S6R (+)cisclausenamide] | – | – | – | – | 87.3 ± 4.4% | 102.9 ± 5.9% | 122.5 ± 14.5% | –
A β 25-35: β-amyloid fragment with neurotoxicity and self-aggregation like A β 1-42; icv injection induces memory impairment (GSNKGAIIGLM; Amyloid-beta protein 42; UniProt P05067 696-706, looked up, fragment) | – | – | – | – | – | – | – | initial heading angle, training day 5 (A β 25-35 treated rats; control 15.4 ± 20.4): 46.7 ± 19.4; initial heading angle, training day 4 (A β 25-35 treated rats; control 29.6 ± 10.7): 60.6 ± 23.8; initial heading angle, training day 3 (A β 25-35 treated rats; control 47.3 ± 15.1): 73.6 ± 20.3; initial heading angle, training day 2 (A β 25-35 treated rats; control 76.8 ± 29.8): 98.7 ± 30.4; initial heading angle, training day 1 (A β 25-35 treated rats; control 93.6 ± 34.6): 106.3 ± 29.8; Number of error, Acquisition ([5]; sham-operated + vehicle 0.3 ± 0.12): 0.9 ± 0.33; Number of error, Training ([5]; sham-operated + vehicle 1.6 ± 0.42): 2.6 ± 0.71
CN1C(=O)[C@H](O)[C@@H]([C@@H](O)c2ccccc2)[C@H]1c1ccccc1 [(+)cisneoclausenamide, 3R4R5S6R (+)cisneoclausenamide] | not any difference | 24.00 ± 4.69 | 42.50 ± 10.01 | 47.00 ± 9.03 | 135.0 ± 12.9% | 150.9 ± 19.9% | 192.3 ± 22.4% | –
Racemic clausenamide [(±) clausenamide, reference compound] | – | – | – | – | – | – | – | effect on PS amplitude (in words) ([6]; 2 μM to 10 μM): inhibitory effect on PS amplitude; decrease of PS amplitude compared with that of (−) clausenamide ([6]; first of the two concentrations (2 μM)): 44%; decrease of PS amplitude compared with that of (−) clausenamide ([6]; second of the two concentrations (10 μM)): 55%; LTP formation (PS amplitude increase over 30% persisting 40 min) ([6]; (−) at 2×10^−6 mol/L, (±) up to 5 times that): could not induce LTP; Error number [3, 7]: 11.3 ± 21.5; Latencies [3, 7]: 43.0 ± 65.8 s; Error number [3, 8]: 14.4 ± 12.3; Latencies [3, 8]: 79.9 ± 63.6 s; Errors number ([4]; anisodine + drug 10 mg/kg): 16.6 ± 23.9; Errors number ([4]; anisodine + drug 100 mg/kg): 9.11 ± 3.8; Lalencies reaching platform, 3rd day (animals; 10 mg/kg): 23.9 ± 22.6 s; Lalencies reaching platform, 4th day (animals; 10 mg/kg): 17.1 ± 14.3 s; Lalencies reaching platform, Second day (animals; 10 mg/kg): 35.8 ± 35.2 s; Lalencies reaching platform, 3rd day (animals; 50 mg/kg): 25.7 ± 13.8 s; Lalencies reaching platform, 4th day (animals; 50 mg/kg): 14.6 ± 10.4 s; Lalencies reaching platform, Second day (animals; 50 mg/kg): 36.6 ± 37.0 s
CN1C(=O)[C@H](O)[C@@H]([C@H](O)c2ccccc2)[C@@H]1c1ccccc1 [(−)cisclausenamide, 3R4R5R6S (−)cisclausenamide] | – | – | – | – | 126.2 ± 2.3% | 141.2 ± 8.6% | 205.4 ± 24.7% | –
CN1C(=O)[C@H](O)[C@H]([C@@H](O)c2ccccc2)[C@@H]1c1ccccc1 [(+)epineoclausenamide, 3R4S5R6R(+)epineoclausen amide] | not any difference | 26.00 ± 2.94 | 38.50 ± 5.02 | 49.75 ± 10.26 | – | – | – | –
